Literature values in patent publication US8410082B2, “Fluorinated diaryl urea derivatives” (Concert Pharmaceuticals, Inc., priority 2009, dated 2013).

Settings: main circulating metabolite of sorafenib in plasma

share of circulating analytes at steady-state: 9-16%
Compound: [O-][n+]1ccccc1 [pyridine N-oxide]
